{"source": "patent EP4385495A1", "about": "“NANOSYSTEMS FOR THE ENCAPSULATION OF THERAPEUTIC AGENTS” (National Technical University of Athens, priority 2022, dated 2024)", "test_system": "IL-6 in RAW264.7 cells", "test": "IL-6 ELISA in supernatants of LPS-stimulated RAW264.7 cells", "format": "cell-based, mouse", "details": "48h after dilution of nanosystems", "method": "The assay was carried using the MOUSE IL-6 ELISA KIT by ORIGENE_(CATALOG No. EA100128), which was based on the evaluation on Microwell Plates coated with antibody to mouse IL-6. The general protocol provided by the supplier for the evaluation of the samples as well as the development of the standard curve of IL-6 was followed. All reagents and working standards were prepared as directed in the instruction form and determined the number of microwell strips required to test the desired number of samples plus appropriate number of wells needed for running blanks and standards. Then 100µL of Standard, control, or sample, were added per well and the plate was cover with the adhesive strip provided and incubated for 1.5 hours at 37°C.\nAfterwards, each well was aspirated and washed, and the process was repeated three times for a total of four washes by filling each well with Wash Buffer. […]\nAfter incubation washing was carried out again, followed by the addition of the working solution of Streptavidin-HRP to each well. […] Finally, the plate was gently tapped to ensure thorough mixing and determine the optical density (OD) of each well immediately, using a microplate reader set to 450 nm (optionally 630nm as the reference wavelength;610-650nm is acceptable).\nThe OD measured for all samples is reflected on the IL-6 standard curve which was developed following the same steps. […] This quantitative assay is based on the sandwich principal as previously described, utilizing the cell culture supernatants for the evaluation of IL-6 protein presence in LPS-treated cells in the presence of the evaluated samples.\nFor this protocol, RAW264.7 cells were treated with LPS prior to the measurement to stimulate IL-6 production and results are reported as pg/ml of IL-6 corresponding to the standard curve of IL-6 developed ([…]). […] Table 3: Anti-inflammatory potential of the samples expressed as IL-6 presence in LPS-stimulated RAW264.7 cells supernatants."}
{"molecule": "C[C@@H]1O[C@@H](O[C@H]2[C@H](Oc3cc(O)c4c(c3)O[C@H](c3ccc(O)cc3)CC4=O)O[C@H](CO)[C@@H](O)[C@@H]2O)[C@H](O)[C@H](O)[C@H]1O", "note": "[S1 [NAR], Naringin]", "values": [{"measurement": "IL-6", "setting": "25 µM", "result": "720,000 pg/ml"}, {"measurement": "IL-6", "setting": "50 µM", "result": "700,000 pg/ml"}, {"measurement": "IL-6", "setting": "100 µM", "result": "455,000 pg/ml"}]}
